Results as given in patent US20100160304A1, “AROMATIC SULFONE COMPOUND AS ALDOSTERONE RECEPTOR MODULATOR” (Dainippon Sumitomo Pharma Co., Ltd, priority 2005, published 2010).

What follows are compounds tested against T1, aldosterone receptor MR (Rattus norvegicus, UniProt P22199) (assay: Aldosterone receptor binding assay ([3H]aldosterone, soluble fraction of rat kidney)). Settings: [3H]aldosterone 2 nM, 2 μM RU-486, 4° C. about 18 hours.
T1 construct: the resultant supernatant was being a soluble fraction of the kidney; from tissue; host or cells: kidney of adrenalectomized rat, 105,000 G supernatant (soluble fraction)
T1 sequence (P22199 1-981): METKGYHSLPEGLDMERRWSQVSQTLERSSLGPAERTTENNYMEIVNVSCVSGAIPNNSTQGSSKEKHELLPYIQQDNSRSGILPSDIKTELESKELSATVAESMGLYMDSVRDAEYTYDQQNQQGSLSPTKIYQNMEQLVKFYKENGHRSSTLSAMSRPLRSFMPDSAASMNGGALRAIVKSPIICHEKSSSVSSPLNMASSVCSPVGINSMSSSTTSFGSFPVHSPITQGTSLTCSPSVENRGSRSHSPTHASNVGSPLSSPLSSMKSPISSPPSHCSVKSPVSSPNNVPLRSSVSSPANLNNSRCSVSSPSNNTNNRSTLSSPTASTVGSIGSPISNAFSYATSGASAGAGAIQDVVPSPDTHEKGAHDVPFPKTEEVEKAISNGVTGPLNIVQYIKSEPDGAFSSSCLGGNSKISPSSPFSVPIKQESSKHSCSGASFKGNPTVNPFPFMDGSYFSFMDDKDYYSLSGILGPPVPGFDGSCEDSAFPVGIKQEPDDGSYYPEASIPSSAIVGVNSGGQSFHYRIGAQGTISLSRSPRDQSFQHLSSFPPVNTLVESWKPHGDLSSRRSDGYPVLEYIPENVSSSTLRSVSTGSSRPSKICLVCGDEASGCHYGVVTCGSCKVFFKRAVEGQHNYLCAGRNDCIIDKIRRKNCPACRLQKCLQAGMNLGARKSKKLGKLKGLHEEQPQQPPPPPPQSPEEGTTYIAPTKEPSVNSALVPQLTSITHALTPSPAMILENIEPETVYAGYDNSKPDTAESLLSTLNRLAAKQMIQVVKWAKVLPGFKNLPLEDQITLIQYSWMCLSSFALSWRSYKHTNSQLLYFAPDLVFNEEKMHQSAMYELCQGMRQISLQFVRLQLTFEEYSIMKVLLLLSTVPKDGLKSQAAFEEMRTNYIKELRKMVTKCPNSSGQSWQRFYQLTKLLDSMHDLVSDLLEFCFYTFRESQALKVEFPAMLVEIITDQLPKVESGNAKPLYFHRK
Experimental: Flank incision (both sides) was subjected to a rat to adrenalectomize. After suturing the rat's incised parts, the rat was again returned to a breeding cage and bred for a duration of 3 to 5 days to collect a kidney from the rat; the collected kidney was homogenized with 0.1 M Tris-HCl, 0.25M sucrose, 0.1M Na2MoO4, 2 mM DTT buffer solution (pH 7.4), the resultant solution was subjected to centrifugal separation at 105,000 G for 30 minutes, and the resultant supernatant was being a soluble fraction of the kidney.
Thereafter, the reactant solution was added with 50 μL of 5% dextran coated charcoal and mixed, and then centrifugated at 3,000 G for 5 minutes. Subsequently, 100 μL of the supernatant was collected and mixed with 3.5 mL of liquid scintillator ACS-II (Amersham) to measure a radioactivity with a liquid scintillation counter (manufactured by Packard, Tri Carb 2700TR). A non-specific binding was determined by adding 2 μM of aldosterone to the reactant solution.
Binding inhibiting rate (%)=10−[(B−N)/(B0−N)]×100
B: Binding amount of the marker ligand in the co-presence of the tested substance and marker ligand,
B0: Binding amount of the marker ligand in the absence of the tested substance, and
N: Binding amount of the marker ligand in the presence of excess aldosterone (2 μM).
`CC1(C)OC(=S)Nc2ccc(NS(=O)(=O)c3cccs3)cc21` [Example 24, N-(4,4-Dimethyl-2-thioxo-1,4-dihydro-2H-3,1-benzoxazin-6-yl)thiophene-2-sulfonamide] was tested, and the IC50 was 13 nM.
`CC1=CC(C)(C)Nc2ccc(NS(=O)(=O)c3ccc(F)cc3)cc21` [Example 69, 4-Fluoro-N-(2,2,4-trimethyl-1,2-dihydroquinolin-6-yl)benzenesulfonamide] was tested, and the IC50 was 1200 nM.
Work on `CC1=CC(C)(C)Nc2ccc(NS(=O)(=O)c3ccc(C(F)(F)F)cc3)cc21` [Example 70, 4-(Trifluoromethyl)-N-(2,2,4-trimethyl-1,2-dihydroquinolin-6-yl)benzenesulfonamide] yielded an IC50 of 300 nM.
With `CC1=CC(C)(C)Nc2ccc(NS(=O)(=O)c3cccnc3)cc21` [Example 73, N-(2,2,4-Trimethyl-1,2-dihydroquinolin-6-yl)pyridine-3-sulfonamide] the IC50 was 210 nM.
Compound `CC1=CC(C)(C)Nc2ccc(NS(=O)(=O)c3ccsc3)cc21` [Example 74, N-(2,2,4-Trimethyl-1,2-dihydroquinolin-6-yl)thiophene-3-sulfonamide] has an IC50 of 120 nM.
Compound `CC1=CC(C)(C)Nc2ccc(NS(=O)(=O)c3cc4ccccc4s3)cc21` [Example 75, N-(2,2,4-Trimethyl-1,2-dihydroquinolin-6-yl)-1-benzothiophene-2-sulfonamide] has an IC50 of 390 nM.
With `CC1=CC(C)(C)Nc2ccc(NS(=O)(=O)c3ccccc3C)cc21` [Example 78, 2-Methyl-N-(2,2,4-trimethyl-1,2-dihydroquinolin-6-yl)benzenesulfonamide] the IC50 was 900 nM.
Compound `CC1=CC(C)(C)Nc2cc(C)c(NS(=O)(=O)c3ccc(C)cc3)cc21` [Example 80, 4-Methyl-N-(2,2,4,7-tetramethyl-1,2-dihydroquinolin-6-yl)benzenesulfonamide] has an IC50 of 1300 nM.
`CC1=CC(C)(C)Nc2ccc(N(C)S(=O)(=O)c3ccc(C)cc3)cc21` [Example 81, N,4-Dimethyl-N-(2,2,4-trimethyl-1,2-dihydroquinolin-6-yl)benzenesulfonamide] was tested, and the IC50 was 500 nM.
With `CC1=CC(C)(C)Nc2ccc(N(C)S(=O)(=O)c3cccs3)cc21` [Example 85, N-Methyl-N-(2,2,4-trimethyl-1,2-dihydroquinolin-6-yl)thiophene-2-sulfonamide] the IC50 was 150 nM.
Compound `CC(=O)N(c1ccc2c(c1)C(C)=CC(C)(C)N2)S(=O)(=O)c1ccc(C)cc1` [Example 86, N-[(4-Methylphenyl)sulfonyl]-N-(2,2,4-trimethyl-1,2-dihydroquinolin-6-yl)acetamide] has an IC50 of 270 nM.
Compound `CC(=O)N(c1ccc2c(c1)C(C)=CC(C)(C)N2)S(=O)(=O)c1ccccc1` [Example 87, N-(Phenylsulfonyl)-N-(2,2,4-trimethyl-1,2-dihydroquinolin-6-yl)acetamide] has an IC50 of 500 nM.
Work on `CC(=O)N(c1ccc2c(c1)C(C)=CC(C)(C)N2)S(=O)(=O)c1ccc(Cl)cc1` [Example 88, N-[(4-Chlorophenyl)sulfonyl]-N-(2,2,4-trimethyl-1,2-dihydroquinolin-6-yl) acetamide] yielded an IC50 of 300 nM.
`CC(=O)N(c1ccc2c(c1)C(C)=CC(C)(C)N2)S(=O)(=O)c1ccc(Cl)s1` [Example 89, N-[(5-Chloro-2-thienyl)sulfonyl]-N-(2,2,4-trimethyl-1,2-dihydroquinolin-6-yl)acetamide] was tested, and the IC50 was 300 nM.
`COC(=O)C(=O)N(c1ccc2c(c1)C(C)=CC(C)(C)N2)S(=O)(=O)c1cccs1` [Example 91, Methyl Oxo[(2-thienylsulfonyl)-(2,2,4-trimethyl-1,2-dihydroquinolin-6-yl)amino]acetate] gave an IC50 of 100 nM.
With `Cc1ccc(S(=O)(=O)Cc2ccc3c(c2)C(C)CC(C)(C)N3)cc1` (stereo not shown) [Example 96, 2,2,4-Trimethyl-6-{[(4-methylphenyl)sulfonyl]methyl}-1,2,3,4-tetrahydroquinoline] the IC50 was 500 nM.
Compound `Cc1ccc(S(=O)(=O)Nc2ccc3c(c2)C(C)CC(C)(C)N3)cc1` (stereo not shown) [Example 97, 4-Methyl-N-(2,2,4-trimethyl-1,2,3,4-tetrahydroquinolin-6-yl)benzenesulfonamide] has an IC50 of 2200 nM.
`CC1CC(C)(C)Nc2ccc(NS(=O)(=O)c3cccs3)cc21` (stereo not shown) [Example 98, N-(2,2,4-Trimethyl-1,2,3,4-tetrahydroquinolin-6-yl)thiophene-2-sulfonamide] showed an IC50 of 94 nM.
`CC1CC(C)(C)Nc2ccc(NS(=O)(=O)c3ccc4ccccc4c3)cc21` (stereo not shown) [Example 99, N-(2,2,4-Trimethyl-1,2,3,4-tetrahydroquinolin-6-yl)naphthalene-2-sulfonamide] gave an IC50 of 3900 nM.
Work on `Cc1ccc(S(=O)(=O)N(C)c2ccc3c(c2)C(C)CC(C)(C)N3)cc1` (stereo not shown) [Example 100, N,4-Dimethyl-N-(2,2,4-trimethyl-1,2,3,4-tetrahydroquinolin-6-yl)benzenesulfonamide] yielded an IC50 of 2100 nM.
`CC(=O)N(c1ccc2c(c1)C(C)CC(C)(C)N2)S(=O)(=O)c1ccc(C)cc1` (stereo not shown) [Example 101, N-[(4-Methylphenyl)sulfonyl]-N-(2,2,4-trimethyl-1,2,3,4-tetrahydroquinolin-6-yl)acetamide] was tested, and the IC50 was 190 nM.
`Cc1ccc(S(=O)(=O)Cc2ccc3c(c2)CCC(C(F)(F)F)N3)cc1` (stereo not shown) [Example 104, 6-{[(4-Methylphenyl)sulfonyl]methyl}-2-(trifluoromethyl)-1,2,3,4-tetrahydroquinoline] showed an IC50 of 1800 nM.
`Cc1ccc(S(=O)(=O)Oc2ccc(NS(C)(=O)=O)cc2)cc1` [Example 105, 4-[(Methylsulfonyl)amino]phenyl 4-methylbenzenesulfonate] gave an IC50 of 6600 nM.
`CCCCS(=O)(=O)Nc1ccc(OS(=O)(=O)c2ccc(C)cc2)cc1` [Example 106, 4-[(Butylsulfonyl)amino]phenyl 4-methylbenzenesulfonate] showed an IC50 of 8000 nM.
With `Cc1ccc(S(=O)(=O)Oc2ccc(NS(C)(=O)=O)cc2C)cc1` [Example 109, 2-Methyl-4-[(methylsulfonyl)amino]phenyl 4-methylbenzenesulfonate] the IC50 was 16000 nM.
`Cc1ccc(S(=O)(=O)Oc2ccc(NS(C)(=O)=O)cc2F)cc1` [Example 110, 2-Fluoro-4-[(methylsulfonyl)amino]phenyl 4-methylbenzenesulfonate] was tested, and the IC50 was 9400 nM.
`Cc1ccc(S(=O)(=O)Cc2ccc(NS(C)(=O)=O)cc2)cc1` [Example 112, N-(4-{[(4-Methylphenyl)sulfonyl]methyl}phenyl)methanesulfonamide] was tested, and the IC50 was 5400 nM.

These compounds were tested on decrease of Na/K ratio in urine induced with aldosterone (assay: Antagonistic action (in vivo antagonist activity) against decrease of Na/K ratio in urine induced with aldosterone, adrenalectomized rat). Settings: oral 10 and 30 mg/kg, 30 minutes before subcutaneous aldosterone, urine collection 4 hours (FIG. 1).
Experimental: After anesthetizing a rat by administering 50 mg/kg of sodium pentobarbital in its abdominal cavity and disinfecting its skin with the Isodine diluted solution, the rat was incised. After adrenalectomy and confirming the hemostasis, the muscular layer and skin were sutured in this order and then the sutured part was disinfected with the Isodine diluted solution. After breeding 3 days or more, a rat showing good progress was subjected to the following test.
It was fasted from the day preceding an examination, put into a metabolic cage at the day of the examination, and then subjected to a urine collection for 4 hours. When a substance to be tested was administered orally, it was administered in an amount of 5 ml/kg with 0.5% methylcellulose as a solvent. The aldosterone was dissolved with 1% ethanol/physiological saline and administered subcutaneously. The substance to be tested was administered 30 minutes before administering aldosterone. In order to stabilize and sufficiently secure the amount of the urine, physiological saline was administered orally in an amount of 20 ml/kg at the time of administering aldosterone. The colleted urine, after measuring its volume, was subjected to a measurement of electrolyte (sodium: Na and potassium: K) concentration in the urine with a biochemistry autoanalyzer (manufactured by Beckman, Synchron CX3 system Delta).
In the case of `CC1(C)OC(=S)Nc2ccc(NS(=O)(=O)c3cccs3)cc21` [Example 24, N-(4,4-Dimethyl-2-thioxo-1,4-dihydro-2H-3,1-benzoxazin-6-yl)thiophene-2-sulfonamide], the “inhibition of the decrease of the urine Na/K ratio induced with aldosterone” value is reported as “dose-dependently inhibited the decrease of the urine Na/K ratio”.
